From ChEMBL document CHEMBL3885881, “DrugMatrix”

Species: Rattus norvegicus
Assay: DrugMatrix - Regimen: Daily Repeat
Format: toxicity, organism-based, Sprague-Dawley
Set-up: regimen Daily Repeat, gender Male, age 6-8 weeks
Details: in vivo, po, route oral GAVAGE, vehicle .5 % CMC; for TOTAL PROTEIN / ALANINE AMINOTRANSFERASE / ALBUMIN / ALKALINE PHOSPHATASE / ASPARTATE AMINOTRANSFERASE / CARBON DIOXIDE / CHLORIDE / CHOLESTEROL / CREATINE PHOSPHOKINASE / CREATININE / GLUCOSE / LACTATE DEHYDROGENASE / LIPASE / PHOSPHORUS / POTASSIUM / SODIUM / TOTAL BILIRUBIN / BLOOD UREA NITROGEN: tissue Plasma; for ABSOLUTE BASOPHIL / ABSOLUTE EOSINOPHIL / ABSOLUTE LYMPHOCYTE / ABSOLUTE MONOCYTE / ABSOLUTE SEGMENTED NEUTROPHIL / BASOPHIL / EOSINOPHIL / ERYTHROCYTE COUNT / HEMATOCRIT / HEMOGLOBIN / LEUKOCYTE COUNT / LYMPHOCYTE / MEAN CORPUSCULAR HEMOGLOBIN / MEAN CORPUSCULAR HEMOGLOBIN CONCENTRATION / MEAN CORPUSCULAR VOLUME / MONOCYTE / NEUTROPHIL / NUCLEATED RED BLOOD CELLS / PLATELET COUNT: tissue Blood
[1] = 25 mg/kg, 120 h, dose level Low, time 5 day
[2] = 1500 mg/kg, 72 h, dose level High, time 3 day
[3] = 1500 mg/kg, 120 h, dose level High, time 5 day

Structure (SMILES): COc1cc(/C=C/C(=O)O)ccc1O [FERULATE]
- TOTAL PROTEIN (25 mg/kg, 72 h, dose level Low, time 3 day): 5.97 G/DL
- ABSOLUTE BASOPHIL [1]: 0 CELLS/uL
- ABSOLUTE EOSINOPHIL [1]: 170 CELLS/uL
- ABSOLUTE LYMPHOCYTE [1]: 14805 CELLS/uL
- ABSOLUTE MONOCYTE [1]: 286 CELLS/uL
- ABSOLUTE SEGMENTED NEUTROPHIL [1]: 1439 CELLS/uL
- BASOPHIL [1]: 0%
- EOSINOPHIL [1]: 1.33%
- ERYTHROCYTE COUNT [1]: 5.63 x10E6/uL
- HEMATOCRIT [1]: 35.7%
- HEMOGLOBIN [1]: 13.7 G/DL
- LEUKOCYTE COUNT [1]: 16.7 x10E3/uL
- LYMPHOCYTE [1]: 87.67%
- MEAN CORPUSCULAR HEMOGLOBIN [1]: 24.43 pg
- MEAN CORPUSCULAR HEMOGLOBIN CONCENTRATION [1]: 38.37 G/DL
- MEAN CORPUSCULAR VOLUME [1]: 63.63 fL
- MONOCYTE [1]: 1.67%
- NEUTROPHIL [1]: 9.33%
- NUCLEATED RED BLOOD CELLS [1]: 0.33 /100WBC
- PLATELET COUNT [1]: 1379.67 x10E3/uL
- ALANINE AMINOTRANSFERASE [1]: 52.67 u/L
- ALBUMIN [1]: 4.27 G/DL
- ALKALINE PHOSPHATASE [1]: 350.33 u/L
- ASPARTATE AMINOTRANSFERASE [1]: 91.33 u/L
- CARBON DIOXIDE [1]: 28 mmol/L
- CHLORIDE [1]: 104.67 MEQ/L
- CHOLESTEROL [1]: 79.67 mg/dL
- CREATINE PHOSPHOKINASE [1]: 317 u/L
- CREATININE [1]: 0.18 mg/dL
- GLUCOSE [1]: 160.67 mg/dL
- LACTATE DEHYDROGENASE [1]: 421.67 u/L
- LIPASE [1]: 9.33 u/L
- PHOSPHORUS [1]: 12.9 mg/dL
- POTASSIUM [1]: 6.65 MEQ/L
- SODIUM [1]: 144.87 MEQ/L
- TOTAL BILIRUBIN [1]: 0.17 mg/dL
- TOTAL PROTEIN [1]: 5.93 G/DL
- ABSOLUTE BASOPHIL [2]: 0 CELLS/uL
- ABSOLUTE EOSINOPHIL [2]: 42 CELLS/uL
- ABSOLUTE LYMPHOCYTE [2]: 12584.67 CELLS/uL
- ABSOLUTE MONOCYTE [2]: 382 CELLS/uL
- ABSOLUTE SEGMENTED NEUTROPHIL [2]: 1124.67 CELLS/uL
- BASOPHIL [2]: 0%
- EOSINOPHIL [2]: 0.33%
- ERYTHROCYTE COUNT [2]: 5.75 x10E6/uL
- HEMATOCRIT [2]: 35.2%
- HEMOGLOBIN [2]: 13.03 G/DL
- LEUKOCYTE COUNT [2]: 14.13 x10E3/uL
- LYMPHOCYTE [2]: 89%
- MEAN CORPUSCULAR HEMOGLOBIN [2]: 22.7 pg
- MEAN CORPUSCULAR HEMOGLOBIN CONCENTRATION [2]: 37.03 G/DL
- MEAN CORPUSCULAR VOLUME [2]: 61.23 fL
- MONOCYTE [2]: 2.67%
- NEUTROPHIL [2]: 8%
- NUCLEATED RED BLOOD CELLS [2]: 0.33 /100WBC
- PLATELET COUNT [2]: 1425.67 x10E3/uL
- ALANINE AMINOTRANSFERASE [2]: 67.67 u/L
- ALBUMIN [2]: 4.13 G/DL
- ALKALINE PHOSPHATASE [2]: 355 u/L
- ASPARTATE AMINOTRANSFERASE [2]: 102.67 u/L
- BLOOD UREA NITROGEN [2]: 13.67 mg/dL
- CARBON DIOXIDE [2]: 25.67 mmol/L
- CHLORIDE [2]: 103.33 MEQ/L
- CHOLESTEROL [2]: 81.67 mg/dL
- CREATINE PHOSPHOKINASE [2]: 489 u/L
- CREATININE [2]: 0.15 mg/dL
- GLUCOSE [2]: 140.67 mg/dL
- LACTATE DEHYDROGENASE [2]: 475.67 u/L
- LIPASE [2]: 10 u/L
- PHOSPHORUS [2]: 10.73 mg/dL
- POTASSIUM [2]: 6.23 MEQ/L
- SODIUM [2]: 143.87 MEQ/L
- TOTAL BILIRUBIN [2]: 0.2 mg/dL
- TOTAL PROTEIN [2]: 5.5 G/DL
- ABSOLUTE BASOPHIL [3]: 0 CELLS/uL
- ABSOLUTE EOSINOPHIL [3]: 97 CELLS/uL
- ABSOLUTE LYMPHOCYTE [3]: 18780.67 CELLS/uL
- ABSOLUTE MONOCYTE [3]: 55.33 CELLS/uL
- ABSOLUTE SEGMENTED NEUTROPHIL [3]: 967 CELLS/uL
- BASOPHIL [3]: 0%
- EOSINOPHIL [3]: 0.33%
- ERYTHROCYTE COUNT [3]: 6.33 x10E6/uL
- HEMATOCRIT [3]: 38.23%
- HEMOGLOBIN [3]: 14.4 G/DL
- LEUKOCYTE COUNT [3]: 19.9 x10E3/uL
- LYMPHOCYTE [3]: 94%
- MEAN CORPUSCULAR HEMOGLOBIN [3]: 22.73 pg
- MEAN CORPUSCULAR HEMOGLOBIN CONCENTRATION [3]: 37.67 G/DL
- MEAN CORPUSCULAR VOLUME [3]: 60.37 fL
- MONOCYTE [3]: 0.33%
- NEUTROPHIL [3]: 5.33%
- NUCLEATED RED BLOOD CELLS [3]: 0.33 /100WBC
- PLATELET COUNT [3]: 1095 x10E3/uL
- ALANINE AMINOTRANSFERASE [3]: 64.33 u/L
- ALBUMIN [3]: 4.57 G/DL
- ALKALINE PHOSPHATASE [3]: 399 u/L
- ASPARTATE AMINOTRANSFERASE [3]: 93.67 u/L
- BLOOD UREA NITROGEN [3]: 16.33 mg/dL
- CARBON DIOXIDE [3]: 26 mmol/L
- CHLORIDE [3]: 107 MEQ/L
- CHOLESTEROL [3]: 64.67 mg/dL
- CREATINE PHOSPHOKINASE [3]: 723.33 u/L
- CREATININE [3]: 0.21 mg/dL
- GLUCOSE [3]: 164.33 mg/dL
- LACTATE DEHYDROGENASE [3]: 166.67 u/L
- LIPASE [3]: 9.67 u/L
- PHOSPHORUS [3]: 11.4 mg/dL
- POTASSIUM [3]: 6.41 MEQ/L
- SODIUM [3]: 146.6 MEQ/L
- TOTAL BILIRUBIN [3]: 0.2 mg/dL
- TOTAL PROTEIN [3]: 6.17 G/DL
